The values below come from US20260083687A1, “COMPOUNDS FOR REDUCING LACTATION AND IMPROVING HEALTH” (AHV International B.V., priority 2022, published 2026).

Where “and” joins values, the source holds several entries; their conditions need not be identical. Identical values can stand only once.

This experiment has as its system cows (Holstein Friesians). Description: Treatment with DPD analogs (organosulfur compounds) and milk yield (Example 8). Format: in vivo, cow. The following applies: for Milk yield (kg) After 24 h / Milk yield (kg) After 48 h / Milk yield (kg) After 72 h / Milk yield (kg) After 96 h / Milk yield (kg) Last milking / Average reduction after 24 and 48 h (%) / average reduction after 24, 48 and 72 h (%) / % reduction after 24 h / % reduction after 48 h / % reduction after 72 h / % reduction after 96 h: individual cows; for Milk yield (kg) After 24 h / Milk yield (kg) After 48 h / Milk yield (kg) After 72 h / Milk yield (kg) After 96 h / Average reduction after 24 and 48 h (%) / average reduction after 24, 48 and 72 h (%) / % reduction after 24 h / % reduction after 48 h / % reduction after 72 h / % reduction after 96 h: dose per compound as listed in E284; for % reduction after 24 h average (milk yield): 24 h after one oral gel capsule; for % reduction after 24 h average (milk yield) / % reduction after 48 h average (milk yield) / % reduction after 72 h average (milk yield) / % reduction after 96 h average (milk yield) / average reduction after 24, 48 and 72 h (%) (milk yield) / Average reduction after 24 and 48 h (%) (milk yield): dose equimolar to 80 ml di-n-propyl disulfide; for % reduction after 24 h average (milk yield) / % reduction after 48 h average (milk yield) / % reduction after 72 h average (milk yield) / % reduction after 96 h average (milk yield): negative value = increase in yield; for % reduction after 48 h average (milk yield): 48 h after one oral gel capsule; for % reduction after 72 h average (milk yield): 72 h after one oral gel capsule; for % reduction after 96 h average (milk yield): 96 h after one oral gel capsule; for average reduction after 24, 48 and 72 h (%) (milk yield): average of 24, 48 and 72 h after one oral gel capsule; for Average reduction after 24 and 48 h (%) (milk yield): average of 24 and 48 h after one oral gel capsule; for Milk yield (kg) Last milking: before administration, single oral gel capsule dose per cow (ml unless g): diethyl disulfide 63, di-n-propyl disulfide 80, diisopropyl disulfide 160, di-n-butyl disulfide 100, dibenzyl disulfide 102, diethyl sulfide 55, di-n-propyl sulfide 72, diisopropyl sulfide 74, di-n-butyl sulfide 90, dibenzyl sulfide 96 g, diphenyl sulfide 85, di-n-propyl trisulfide 98, di-n-propyl sulfone 6; for % reduction after 24 h / % reduction after 48 h / % reduction after 72 h / % reduction after 96 h: vs milk yield before treatment. How it is done:
Study design. 36 cows (Holstein Friesians) from 2 farms were used. The feed of the cows was composed of TMR, including corn and grass silage, supplemented with soya and minerals. […] The cows were milked in a milk robot. […] The cows were milked twice a day. The cows were housed in free stables. […] Placebo treatment corresponded to administration of two gel capsules containing 180 ml water.
For this study dosages synthetic compounds (>96% purity) as indicated in table 17 were administered to cows. The objective of this study was to compare the activity of a corresponding dose of the compounds expressed in mol, based on the number of moles that is present in 80 ml di-n-propyl disulfide at 20° C. The number of moles was converted to ml or grams of the tested compounds. For this purpose, the molecular weight and specific density were used in the calculations. The compounds were formulated in the gel capsules as indicated in the previous examples.
Before the various dosages were administered, the milk yields were monitored for at least 5 days.

For the compound `CCCS(=O)(=O)CCC` [Di-n-propyl sulfone, di-n-propyl sulfone], the “Milk yield (kg) After 24 h” value came to 13.7 kg, the “Milk yield (kg) After 48 h” value is listed as 13.8 kg, the “Milk yield (kg) After 72 h” value was determined as 15.2 kg and the “Milk yield (kg) After 96 h” value is recorded as 18.7 kg.
Take `[O-][S+](Cc1ccccc1)SCc1ccccc1` (centres unmarked) [Dibenzyl thiosulfinate, di-benzyl thiosulfinate]: the “% reduction after 24 h average (milk yield)” value (“% reduction after 24 h average” below) came to 38%, the “% reduction after 48 h average (milk yield)” value (“% reduction after 48 h average” below) is 37%, the “% reduction after 72 h average (milk yield)” value (“% reduction after 72 h average” below) stood at 27.5% and the “% reduction after 96 h average (milk yield)” value (“% reduction after 96 h average” below) is reported as 5%. Also, the “average reduction after 24, 48 and 72 h (%) (milk yield)” value is 34.2%; the “Average reduction after 24 and 48 h (%) (milk yield)” value is 37.5%; the “Milk yield (kg) Last milking” value was 30.3 kg and 27.9 kg; the “Average reduction after 24 and 48 h (%)” value was 32.5% and 42.5%. For the same compound, the “Milk yield (kg) After 24 h” value was 20.4 kg and 15.6 kg; the “Milk yield (kg) After 48 h” value was 20.7 kg and 15.9 kg; the “Milk yield (kg) After 72 h” value is 24.3 kg and 17.9 kg; the “Milk yield (kg) After 96 h” value was 28.1 kg and 27.3 kg. For the same compound, the “average reduction after 24, 48 and 72 h (%)” value was 28.5% and 39.7%; the “% reduction after 24 h” value is 33% and 43%; the “% reduction after 48 h” value is 32% and 42%; the “% reduction after 72 h” value is 20% and 35%. Besides, the “% reduction after 96 h” value was 7% and 3%.
Turning to `O=S(=O)(Cc1ccccc1)SCc1ccccc1` [Dibenzyl thiosulfonate, di-benzyl thiosulfonate], the “% reduction after 24 h average” value was 48%, the “% reduction after 48 h average” value is recorded as 48%, the “% reduction after 72 h average” value was found to be 28% and the “% reduction after 96 h average” value stood at 15%. The “average reduction after 24, 48 and 72 h (%) (milk yield)” value is on record as 41.3%; the “Average reduction after 24 and 48 h (%) (milk yield)” value is 48%; the “Milk yield (kg) Last milking” value is 27.8 kg; the “Average reduction after 24 and 48 h (%)” value is 48%. In addition, the “Milk yield (kg) After 24 h” value came out at 14.5 kg, the “Milk yield (kg) After 48 h” value is given as 14.6 kg, the “Milk yield (kg) After 72 h” value was determined as 19.9 kg and the “Milk yield (kg) After 96 h” value amounted to 23.5 kg. Moreover, the “average reduction after 24, 48 and 72 h (%)” value came out at 41.3%; the “% reduction after 24 h” value was determined as 48%; the “% reduction after 48 h” value was determined as 48%; the “% reduction after 72 h” value came to 28%. For the same compound, the “% reduction after 96 h” value came to 15%.
Take `CC(C)SSC(C)C` [Diisopropyl disulfide, di-isopropyl disulfide]: the “Milk yield (kg) After 24 h” value stood at 13.6 kg, the “Milk yield (kg) After 48 h” value is 15.4 kg, the “Milk yield (kg) After 72 h” value is 18.5 kg and the “Milk yield (kg) After 96 h” value is 19.5 kg.
“di-isopropyl thiosulfonate [Diisopropyl thiosulfonate]”: the “% reduction after 24 h average” value amounted to 28%, the “% reduction after 48 h average” value was found to be 26%, the “% reduction after 72 h average” value is recorded as 9% and the “% reduction after 96 h average” value was 0%. Further, the “average reduction after 24, 48 and 72 h (%) (milk yield)” value stood at 21%; the “Average reduction after 24 and 48 h (%) (milk yield)” value was found to be 27%; the “Milk yield (kg) Last milking” value came to 28.9 kg; the “Average reduction after 24 and 48 h (%)” value is 27%. Further, the “Milk yield (kg) After 24 h” value came out at 20.8 kg, the “Milk yield (kg) After 48 h” value came to 21.4 kg, the “Milk yield (kg) After 72 h” value stood at 26.3 kg and the “Milk yield (kg) After 96 h” value came out at 28.8 kg. Besides, the “average reduction after 24, 48 and 72 h (%)” value was 21%; the “% reduction after 24 h” value came out at 28%; the “% reduction after 48 h” value was determined as 26%; the “% reduction after 72 h” value is listed as 9%. The “% reduction after 96 h” value is reported as 0%.
